In patent publication US11673892B2, “Bicyclic compounds for use as RIP1 kinase inhibitors” (Genentech, Inc., priority 2017, dated 2023) one finds Ki data, which are given here for 47 molecules.

This experiment deals with T1, human RIP1 kinase domain (2-375) (Homo sapiens, UniProt Q13546).
T1 construct: Purified human RIP1 kinase domain (2-375) (50 nM); made in house; host or cells: baculovirus-infected insect cells
T1 sequence (Q13546 2-375): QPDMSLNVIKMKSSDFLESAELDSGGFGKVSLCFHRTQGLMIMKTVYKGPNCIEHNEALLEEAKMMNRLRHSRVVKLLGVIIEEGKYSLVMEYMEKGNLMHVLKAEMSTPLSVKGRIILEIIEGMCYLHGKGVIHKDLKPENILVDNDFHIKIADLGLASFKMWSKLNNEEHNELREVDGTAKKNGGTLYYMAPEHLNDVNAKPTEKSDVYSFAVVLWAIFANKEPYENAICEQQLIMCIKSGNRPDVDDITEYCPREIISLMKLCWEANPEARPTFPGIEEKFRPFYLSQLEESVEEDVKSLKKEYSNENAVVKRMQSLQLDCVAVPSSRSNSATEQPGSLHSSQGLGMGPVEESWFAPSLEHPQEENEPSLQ
The experiment can be described thus: RIP1 kinase inhibition biochemical assay (Transcreener ADP, fluorescence polarization). The conditions noted are these: Ki app (Morrison tight-binding fit); 50 nM enzyme, 50 uM ATP, 2 hours incubation. The procedure: RIP1 Kinase Inhibition Assays (Biochemical Assay)
The compounds of the present invention were tested for their capacity to inhibit RIP1K activity as described below.
The ability of the receptor interacting protein kinase (RIPK1) to catalyze the hydrolysis of adenosine-5′-triphosphate (ATP) is monitored using the Transcreener ADP (adenosine-5′-diphosphate) assay (BellBrook Labs). Purified human RIP1 kinase domain (2-375) (50 nM) derived from a baculovirus-infected insect cell expression system is incubated with test compounds for 2 hours in 50 mM Hepes buffer (pH 7.5) containing 30 mM MgCl2, 1 mM dithiothreitol, 50 uM ATP, 0.002% Brij-35, and 0.5% dimethyl sulfoxide (DMSO). Reactions are quenched by the addition of 1× Bell Brooks Stop buffer B (20 mM Hepes (ph7.5), 40 mM ethylenediaminetetraacetic acid and 0.02% Brij-35) containing an additional 12 mM EDTA and 55 ug/mL ADP2 antibody and 4 nM ADP-AlexaFluor® 633 tracer. The tracer bound to the antibody is displaced by the ADP generated during the RIP1K reaction, which causes a decrease in fluorescence polarization that is measured by laser excitation at 633 nm with a FP microplate reader M1000. Fractional activity was plotted against test article concentration. Using Genedata Screener software (Genedata; Basel, Switzerland), the data were fit to the tight-binding apparent inhibition constant (Ki^app) Morrison equation [Williams, J. W. and Morrison, J. F. (1979) The kinetics of reversible tight-binding inhibition. Methods Enzymol 63: 437-67]. The following equation was used to calculate fractional activity and Ki^app:
[formula] where [E]T and [I]T are the total concentrations of active enzyme and test article, respectively.
Exemplary compounds of the present invention are provided in Table 1 along with their physiochemical characterization and in vitro RIP1 kinase inhibitory activity data. “Method” in the first column of each table refers to the synthetic method(s) used to prepare each compound as shown in the Examples above. In certain examples, chiral column retention times (min) are provided for certain stereoisomers. Unless otherwise specified, the stereochemistry shown in each structure represents relative configuration of a single stereoisomer, and absolute configuration (i.e., “R” and/or “S”) is arbitrarily assigned. In some embodiments, where the Method is described to include the separation of stereoisomers, a single stereoisomer of a compound of Table 1 is provided.
(In general: Fluorescence polarisation rises when a labelled molecule tumbles more slowly, as on binding a larger partner.)

With `N#CCCc1nc2n(n1)[C@H](c1ccccc1)C[C@@H]2F` (single isomer, unassigned) [Example 22], the Ki turned out to be 11 nM. Under `Cc1cnn(-c2nc3n(n2)[C@H](c2ccccc2)C[C@@H]3F)c1` (single isomer, unassigned) [Example 25] stands 17 nM; under `CCCc1nc2n(n1)[C@H](c1ccccc1F)CC2` (single isomer, unassigned) [Example 26], 114 nM. `CC[C@](C)(F)c1nc2n(n1)[C@H](c1ccccc1)C[C@@H]2F` (single isomer, unassigned) [Example 27] returned a Ki of 33 nM. To `FC(F)CCc1nc2n(n1)[C@H](c1ccccc1)C[C@@H]2F` (single isomer, unassigned) [Example 29] belongs 22 nM; to `F[C@H]1C[C@@H](c2ccccc2)n2nc(-n3cccn3)nc21` (single isomer, unassigned) [Example 31], 160 nM.

On to `CC[C@@](C)(F)c1nc2n(n1)[C@H](c1ccccc1)C[C@@H]2F` (single isomer, unassigned) [Example 32], for which the Ki amounted to 18 nM. To `O[C@H](c1nc2n(n1)[C@H](c1ccccc1)C[C@@H]2F)C1CC1` (single isomer, unassigned) [Example 34] belongs 904 nM.

Consider `O[C@@H](c1nc2n(n1)[C@H](c1ccccc1)C[C@@H]2F)C1CC1` (single isomer, unassigned) [Example 35], for which the Ki came out at 83 nM. To `CC(C)c1cnn(-c2nc3n(n2)[C@H](c2ccccc2)C[C@@H]3F)c1` (single isomer, unassigned) [Example 39] belongs 30 nM. As to `F[C@H]1C[C@@H](c2ccccc2)n2nc(-n3cc(-c4ccncn4)cn3)nc21` (single isomer, unassigned) [Example 41], the Ki is 260 nM.

The molecule `F[C@H]1C[C@@H](c2ccccc2)n2nc([C@H](F)C34CC(C3)C4)nc21` (single isomer, unassigned) [Example 45] returned a Ki of 230 nM.

In the case of `F[C@H](c1nc2n(n1)[C@H](c1ccccc1)C[C@@H]2F)C12CC(C1)C2` (single isomer, unassigned) [Example 46], the Ki is 840 nM. To `N#CC1(Cc2nc3n(n2)[C@H](c2ccccc2)C[C@@H]3F)CC1` (single isomer, unassigned) [Example 47] belongs 95 nM. Under `Cn1cc(/C=C/c2nc3n(n2)[C@H](c2ccccc2)C[C@@H]3F)cn1` (single isomer, unassigned) [Example 49] stands 1200 nM. Under `C=Cc1nc2n(n1)[C@H](c1ccccc1)C[C@@H]2F` (single isomer, unassigned) [Example 50] stands 220 nM; under `C=CCc1nc2n(n1)[C@H](c1ccccc1)C[C@@H]2F` (single isomer, unassigned) [Example 52], 100 nM; under `N#Cc1ccn(-c2nc3n(n2)[C@H](c2ccccc2)C[C@@H]3F)n1` (single isomer, unassigned) [Example 53], 280 nM. `N#Cc1cnn(-c2nc3n(n2)[C@H](c2ccccc2)C[C@@H]3F)c1` (single isomer, unassigned) [Example 54] returned a Ki of 41 nM. Under `F[C@H]1C[C@@H](c2ccccc2)n2nc(-n3cc(C(F)(F)F)cn3)nc21` (single isomer, unassigned) [Example 56] stands less than 5 nM; under `COc1cnn(-c2nc3n(n2)[C@H](c2ccccc2)C[C@@H]3F)c1` (single isomer, unassigned) [Example 57], 130 nM; under `Fc1cnn(-c2nc3n(n2)[C@H](c2ccccc2)C[C@@H]3F)c1` (single isomer, unassigned) [Example 58], 9 nM. To `CCc1cnn(-c2nc3n(n2)[C@H](c2ccccc2)C[C@@H]3F)c1` (single isomer, unassigned) [Example 59] belongs 11 nM. Consider `Cn1ccnc1-c1nc2n(n1)[C@H](c1ccccc1)C[C@@H]2F` (single isomer, unassigned) [Example 61], for which the Ki is 820 nM. Under `F[C@H]1C[C@@H](c2ccccc2)n2nc(-n3cnc(C(F)(F)F)c3)nc21` (single isomer, unassigned) [Example 62] stands 160 nM. To `Cc1ccnn1-c1nc2n(n1)[C@H](c1ccccc1)C[C@@H]2F` (single isomer, unassigned) [Example 63] belongs 92 nM. Under `F[C@H]1C[C@@H](c2ccccc2)n2nc(-n3ccc(C(F)(F)F)n3)nc21` (single isomer, unassigned) [Example 64] stands 610 nM; under `Cc1nn(-c2nc3n(n2)[C@H](c2ccccc2)C[C@@H]3F)c(N)c1C#N` (single isomer, unassigned) [Example 65], 720 nM; under `F[C@H]1C[C@@H](c2ccccc2)n2nc(-n3ccnc3)nc21` (single isomer, unassigned) [Example 66], 890 nM.

`Cc1nccn1-c1nc2n(n1)[C@H](c1ccccc1)C[C@@H]2F` (single isomer, unassigned) [Example 67]: the Ki worked out at 890 nM. Consider `F[C@H]1C[C@@H](c2ccccc2)n2nc(-n3cncn3)nc21` (single isomer, unassigned) [Example 68], for which the Ki stood at 190 nM. Under `F[C@H]1C[C@@H](c2ccccc2)n2nc(-n3ccnc3Cl)nc21` (single isomer, unassigned) [Example 69] stands 86 nM; under `Cc1ncn(-c2nc3n(n2)[C@H](c2ccccc2)C[C@@H]3F)c1C` (single isomer, unassigned) [Example 70], 180 nM; under `Cn1ccn(-c2nc3n(n2)[C@H](c2ccccc2)C[C@@H]3F)c1=O` (single isomer, unassigned) [Example 71], 820 nM. As for `N#Cc1cccc2c1cnn2-c1nc2n(n1)[C@H](c1ccccc1)C[C@@H]2F` (single isomer, unassigned) [Example 72], the Ki is less than 5 nM. Under `Cc1ncnn1-c1nc2n(n1)[C@H](c1ccccc1)C[C@@H]2F` (single isomer, unassigned) [Example 74] stands 70 nM; under `F[C@H]1C[C@@H](c2ccccc2)n2nc(-n3cnc(Cl)c3)nc21` (single isomer, unassigned) [Example 75], 100 nM; under `Fc1cn(-c2nc3n(n2)[C@H](c2ccccc2)C[C@@H]3F)cn1` (single isomer, unassigned) [Example 76], 64 nM.

The molecule `N#CCc1cnn(-c2nc3n(n2)[C@H](c2ccccc2)C[C@@H]3F)c1` (single isomer, unassigned) [Example 77] came in with a Ki of 260 nM. The molecule `F[C@H]1C[C@@H](c2ccccc2)n2nc(-n3cc(C4CC4)cn3)nc21` (single isomer, unassigned) [Example 79] showed a Ki of 13 nM. Under `CS(=O)(=O)c1cnn(-c2nc3n(n2)[C@H](c2ccccc2)C[C@@H]3F)c1` (single isomer, unassigned) [Example 80] stands 190 nM; under `F[C@H]1C[C@@H](c2ccccc2)n2nc(-n3nnc4ccccc43)nc21` (single isomer, unassigned) [Example 81], 5 nM.

Regarding `F[C@H]1C[C@@H](c2ccccc2)n2nc(-n3nnc4ccncc43)nc21` (single isomer, unassigned) [Example 83], the Ki was 36 nM. Under `F[C@H]1C[C@@H](c2ccccc2)n2nc(-n3ncc4ncccc43)nc21` (single isomer, unassigned) [Example 84] stands 29 nM; under `F[C@H]1C[C@@H](c2ccccc2)n2nc(-n3ncc4cnccc43)nc21` (single isomer, unassigned) [Example 89], 810 nM. Under `Cc1cc(C#N)nn1-c1nc2n(n1)[C@H](c1ccccc1)C[C@@H]2F` (single isomer, unassigned) [Example 91] stands 13 nM.

Regarding `Cc1nn(-c2nc3n(n2)[C@H](c2ccccc2)C[C@@H]3F)cc1C#N` (single isomer, unassigned) [Example 92], the Ki came out at 250 nM.
